This note sets out measurements from patent US20160120863A1, “SLC2A TRANSPORTER INHIBITORS” (IOMET PHARMA LTD., priority 2013, published 2016).

Assay type in all cases: cell-based
One test concerns A549 cells. Briefly: Lactate production assay (lactate secretion, 5 or 17 mM glucose). The conditions noted are these: Homo sapiens, 4 hours incubation. The protocol: A549 cells were grown in DMEM/F12K+L-Glutamine supplemented with 10% foetal bovine serum. Cells were re-suspended in assay media (DMEM without phenol red, pyruvate and glucose, 10% foetal bovine serum, 2 mM L-Glutamine and 5 or 17 mM glucose) and seeded at 40×10^3 cells per well into 96-well plates and incubated overnight. Increasing concentrations of the test compound (compound 155) and vehicle control were added and incubated for 4 hours at 37° C., 5% CO2. Lactate reagent was added (Trinity Biotech), the plates were incubated in the dark for 7 min at room temperature before capturing the absorbance at 540 nm using a plate reader.

Another test addresses T1, human GLUT1 (Homo sapiens, UniProt P11166).
T1 construct: expressed in transfected cells
T1 sequence (P11166 1-492): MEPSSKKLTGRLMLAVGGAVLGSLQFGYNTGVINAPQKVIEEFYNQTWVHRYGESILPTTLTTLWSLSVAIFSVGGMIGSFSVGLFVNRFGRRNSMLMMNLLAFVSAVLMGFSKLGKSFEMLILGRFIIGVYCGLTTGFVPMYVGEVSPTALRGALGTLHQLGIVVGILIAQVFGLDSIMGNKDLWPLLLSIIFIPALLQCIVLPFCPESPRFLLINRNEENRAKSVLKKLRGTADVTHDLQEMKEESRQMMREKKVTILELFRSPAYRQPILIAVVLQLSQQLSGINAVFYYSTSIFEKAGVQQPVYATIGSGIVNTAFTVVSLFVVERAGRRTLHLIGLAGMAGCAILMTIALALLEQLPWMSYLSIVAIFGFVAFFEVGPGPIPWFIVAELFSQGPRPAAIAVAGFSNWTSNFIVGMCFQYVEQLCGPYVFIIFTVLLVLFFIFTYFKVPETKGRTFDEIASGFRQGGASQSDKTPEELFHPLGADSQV
As to the kind of experiment: [3H]-deoxy-D-glucose uptake assay, GLUT1. The conditions noted are these: [3H]-deoxy-D-glucose uptake in HEK293 cells stably expressing human GLUT1. The method in brief: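 HEK293 cells stably overexpressing human GLUT1 or GLUT2, seeded at 60,000 per well, treated with compounds in glucose-free uptake buffer for 30 min at 37 °C. [3H]-deoxy-D-glucose uptake quantified by scintillation counting after ice-cold PBS washes; IC50 determined.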

The test system of test [1] is A549 adenocarcinoma NucLight Red cells. As to the kind of experiment: Apoptosis induction assay, Caspase 3/7 reagent, IncuCyte. The following applies: Homo sapiens, Caspase 3/7, AUC analysis of first 24 hours of compound exposure. The procedure: (§1) A549 adenocarcinoma NucLight Red cells were grown in Ham's F12K medium supplemented with 10% foetal bovine serum, 2 mM Glutamax, 1% pen/strep and 0.5 μg ml-l puromycin. Cells were seeded at 1×10^4 cells per well into 384-well microtitre-plates with media containing 5 mM (FIGS. 3A and 3C) or 17 mM glucose (FIGS. 3B and 3D). The cells were left to adhere before the addition of increasing concentration of test compound (compound 155) and vehicle control. The cells stably expressed Essen CellPlayer NucLight Red Fluorescent Protein to allow measurement of cell proliferation (FIGS. 3 A and B). The culture medium contained Essen CellPlayer 96-well Kinetic Caspase 3/7-reagent and Biotium DEVD-NucView 488 to allow measurement of apoptosis induction (FIGS. 3 C and D). Cells were monitored continuously for 48 hours of compound exposure using Essen IncuCyte.
(§2) pIC50 values for the proliferation and apoptosis assays were derived from area under the curve (AUC) analysis of data from the first 24 hours of compound exposure.

For test [2], the system named is [3H]-deoxy-D-glucose uptake. As to the kind of experiment: Glucose uptake assay with compound 155 (inhibition of [3H]-deoxy-D-glucose uptake, FIG. 2A). The conditions noted are these: read-out: Glucose Uptake pIC50 (converted).
Test [3] relates to A549 adenocarcinoma NucLight Red cells. Briefly: Cell growth (proliferation) assay, NucLight Red, IncuCyte. The following applies: Homo sapiens, AUC analysis of first 24 hours of compound exposure. The protocol: as §1, §2

Read-outs that look alike come from different tables or passages of the source.

As to `N#Cc1ccccc1-c1ccc2nc(-c3ccc(Cl)cc3)c(CN3CCN(C(=O)c4cccc(F)c4)CC3)n2c1` [Compound 155], the IC50 is 77.6 nM in the test on A549 cells (5 mM glucose, read-out: Lactate Secretion (5 mM glucose) pIC50 (converted)); 398 nM in the test with A549 cells (17 mM glucose, read-out: Lactate Secretion (17 mM glucose) pIC50 (converted)); 316 nM in test [1] (5 mM glucose, read-out: Apoptosis (5 mM glucose) pIC50 (converted)); 813 nM in test [1] (17 mM glucose, read-out: Apoptosis (17 mM glucose) pIC50 (converted)); 25.7 nM in test [2]; less than 126 nM in test [3] (5 mM glucose, read-out: Proliferation (5 mM glucose) pIC50 (converted)). For the same molecule, the IC50 in test [3] (17 mM glucose, read-out: Proliferation (17 mM glucose) pIC50 (converted)) was 380 nM. Moreover, on human GLUT1, the “GLUT1 pIC50” value is “+++ (pIC50 ≧ 6.00)”.
